These compounds were tested against human IDO1 (Homo sapiens, UniProt P14902) (assay: Assessment of human IDO-1 inhibitory activity in Hela cells (Interferon-gamma stimulated HeLa cells, Ehrlich reagent, absorbance 490 nm)). Settings: Hela Human IDO-1 cellular assay.
Format: cell-based
Set-up: endogenous in cells; host or cells: HeLa cells stimulated with interferon-gamma
Summary of the method: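 IDO activity induced by 18 h IFN-γ (human 10 ng/ml or murine 5 ng/ml, final) after 1 h compound pre-treatment of HeLa cells at 37 °C. Supernatant kynurenine detected via Ehrlich reagent absorbance at 490 nm following 3% TCA at 50 °C; IC50 set against no-IFN-γ and untreated-stimulated controls.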

Sequence of human IDO1 (P14902 whole entry): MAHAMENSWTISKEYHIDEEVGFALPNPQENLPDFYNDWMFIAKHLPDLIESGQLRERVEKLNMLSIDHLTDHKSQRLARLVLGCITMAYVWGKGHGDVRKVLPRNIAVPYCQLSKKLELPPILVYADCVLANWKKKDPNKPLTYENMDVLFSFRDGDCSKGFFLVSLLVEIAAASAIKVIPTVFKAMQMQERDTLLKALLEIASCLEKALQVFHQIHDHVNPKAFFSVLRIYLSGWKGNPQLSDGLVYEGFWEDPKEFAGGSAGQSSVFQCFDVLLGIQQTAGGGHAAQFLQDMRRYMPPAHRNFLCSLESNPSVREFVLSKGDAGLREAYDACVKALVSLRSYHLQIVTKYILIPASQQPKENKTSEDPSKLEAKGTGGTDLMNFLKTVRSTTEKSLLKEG

CCC(CC(=O)O)c1ccc(N2CC(O)(c3ccc(F)cc3)C2)c(Nc2ccc(C#N)cc2)c1 (single isomer, unassigned) [Example 1254, 3-(3-((4-cyanophenyl)amino)-4-(3-(4-fluorophenyl)-3-hydroxyazetidin-1-yl)phenyl)pentanoic acid] and CCC(CC(=O)O)c1ccc(N2CC(O)(c3ccc(F)cc3)C2)c(Nc2ccc(Cl)cc2)c1 (single isomer, unassigned) [Example 1253 E2, 3-(3-((4-Chlorophenyl)amino)-4-(3-(4-fluorophenyl)-3-hydroxyazetidin-1-yl)phenyl)pentanoic acid] cannot be ordered by IC50: under 50 nM for the first, under 5 nM for the second.

CCCN(c1ccc(C(C)(C)CC(=O)O)cc1Nc1ccc(C#N)cc1)C1CCS(=O)(=O)CC1 [Example 187, 3-(3-((4-Cyanophenyl)amino)-4-((1,1-dioxidotetrahydro-2H-thiopyran-4-yl)(propyl)amino)phenyl)-3-methylbutanoic acid] and CCCN(c1ccc(C(C)(C)CC(=O)O)cc1Nc1ccc(Cl)cc1)C1CCOCC1 [Example 21, 3-(3-((4-Chlorophenyl)amino)-4-(propyl(tetrahydro-2H-pyran-4-yl)amino)phenyl)-3-methylbutanoic acid] cannot be ordered by IC50: under 50 nM for the first, under 5 nM for the second.

CCN(c1ccc([C@H](CNS(=O)(=O)C(F)(F)F)COC)cc1Nc1ccc(C#N)cc1)C1CCOCC1 [Example 1342, (R)-N-(2-(3-((4-cyanophenyl)amino)-4-(ethyl(tetrahydro-2H-pyran-4-yl)amino)phenyl)-3-methoxypropyl)-1,1,1-trifluoromethanesulfonamide] and CCCN(c1ccc([C@@H](CC)CC(=O)O)cc1NC(=O)Nc1ccc(C#N)cc1)C1CCOCC1 (single isomer, unassigned) [Example 545] cannot be ordered by IC50: under 50 nM for the first, under 50 nM for the second.

Going from COCC(CC(=O)O)c1ccc(N2CCOC[C@H]2C(C)C)c(NC(=O)Nc2ccc(C#N)cc2)c1 (single isomer, unassigned) [Example 911] to COCC(CC(=O)O)c1ccc(N2CCOC[C@H]2C(C)C)c(Nc2ccc(C#N)cc2)c1 (single isomer, unassigned) [Example 909], the IC50 falls from over 50 nM to under 50 nM.

CCC1COCCN1c1ccc([C@H](COC)CC(=O)O)cc1Nc1ccc(C#N)cn1 (single isomer, unassigned) [Example 1289] and CCC1COCCN1c1ccc([C@@H](COC)CC(=O)O)cc1Nc1ccc(F)cn1 (single isomer, unassigned) [Example 1302] cannot be ordered by IC50: over 50 nM for the first, over 50 nM for the second.

Going from CCOc1ncc(Nc2cc([C@@H](CC)CC(=O)O)ccc2N2C3CCC2CC(c2ccc(F)cc2)C3)cn1 (stereo partly drawn) [Example 1360, (S)-3-(3-((2-Ethoxypyrimidin-5-yl)amino)-4-(3-(4-fluorophenyl)-8-azabicyclo[3.2.1]octan-8-yl)phenyl)pentanoic acid] to CCOc1ncc(Nc2cc(C(CC)CC(=O)O)ccc2N2CC(O)(c3ccc(F)cc3)C2)cn1 (single isomer, unassigned) [Example 1256, 3-(3-((2-ethoxypyrimidin-5-yl)amino)-4-(3-(4-fluorophenyl)-3-hydroxyazetidin-1-yl)phenyl)pentanoic acid], the IC50 rises from under 5 nM to over 50 nM.

CCC(CC(=O)O)c1cc(F)c(N(CC)C2CCOCC2)c(Nc2cnc(OC)nc2)c1 (single isomer, unassigned) [Example 135, 3-(4-(ethyl(tetrahydro-2H-pyran-4-yl)amino)-3-fluoro-5-((2-methoxypyrimidin-5-yl)amino)phenyl) pentanoic acid] and CCC(CC(=O)O)c1ccc(N(CCOC)C2CCOCC2)c(Nc2cnc(OC)nc2)c1 (single isomer, unassigned) [Example 1259, 3-(4-((2-methoxyethyl)(tetrahydro-2H-pyran-4-yl)amino)-3-((2-methoxypyrimidin-5-yl)amino)phenyl)pentanoic acid] cannot be ordered by IC50: under 50 nM for the first, under 50 nM for the second.

Compared with CCOc1cnc(Nc2cc(C(C)CC(=O)O)ccc2N(CC)C2CCOCC2)cn1 (single isomer, unassigned) [Example 630, 3-(3-((5-ethoxypyrazin-2-yl)amino)-4-(ethyl (tetrahydro-2H-pyran-4-yl)amino)phenyl)butanoic acid], CCN(c1ccc([C@@H](COC)CC(=O)O)cc1Nc1cc(C)c(C#N)cn1)C1CCOCC1 (single isomer, unassigned) [Example 384] is higher in IC50: under 50 nM for the first, over 50 nM for the second. The first is the more potent here.

CCC(CC(=O)O)c1ccc(N2CCOCC2)c(NC(=O)Nc2ccc(C)cc2)c1 (single isomer, unassigned) [Example 8 Enantiomer 1, 3-(4-Morpholino-3-(3-(p-tolyl)ureido)phenyl)pentanoic acid] and COCC(CC(=O)O)c1ccc(N2C[C@@H](C)O[C@@H](C)C2)c(NC(=O)Nc2ccc(C#N)cc2)c1 (single isomer, unassigned) [Example 605 Diastereomer 1] cannot be ordered by IC50: over 50 nM for the first, over 50 nM for the second.

CCC1COCCN1c1ccc([C@H](COC)CC(=O)O)cc1Nc1ccc(C#N)cc1 (single isomer, unassigned) [Example 1287] and CCC1COCCN1c1ccc([C@@H](COC)CC(=O)O)cc1Nc1ccc(C#N)c(F)c1 (single isomer, unassigned) [Example 1282] cannot be ordered by IC50: over 50 nM for the first, over 50 nM for the second.

CCN(c1cc(F)c(C(COC)CC(=O)O)cc1NC(=O)Nc1ccc(Cl)cc1F)C1CCOCC1 (single isomer, unassigned) [Example 855, 3-(5-(3-(4-Chloro-2-fluorophenyl)ureido)-4-(ethyl(tetrahydro-2H-pyran-4-yl)amino)-2-fluorophenyl)-4-methoxybutanoic acid] and CCN(c1ccc([C@@H](COC)CC(=O)O)cc1NC(=O)Nc1ccc(Cl)cc1Cl)C1CCOCC1 (single isomer, unassigned) [Example 430] cannot be ordered by IC50: under 50 nM for the first, under 50 nM for the second.

CCOc1ncc(Nc2cc(C(CC)CC(=O)O)ccc2N2CCN(C(=O)OC(C)(C)C)CC2)cn1 (single isomer, unassigned) [Example 675, 3-(4-(4-(tert-Butoxycarbonyl)piperazin-1-yl)-3-((2-ethoxypyrimidin-5-yl)amino)phenyl)pentanoic acid] and CCOc1ncc(Nc2cc(C(CC)CC(=O)O)ccc2N2C[C@@H]3C[C@H]2CN3C(=O)OC(C)(C)C)cn1 (single isomer, unassigned) [Example 448] cannot be ordered by IC50: over 50 nM for the first, over 50 nM for the second.

CC(CC(=O)O)c1ccc(N(CC(C)(C)O)C2CCCCC2)c(Nc2ccc(Cl)cc2)c1 (single isomer, unassigned) [Example 48 Enantiomer 1, 3-(3-((4-Chlorophenyl)amino)-4-(cyclohexyl(2-hydroxy-2-methylpropyl)amino)phenyl)butanoic acid] and CCCN(c1ccc([C@H](CC)CC(=O)O)cc1Nc1ccc(Cl)cc1)C1CCOCC1 (single isomer, unassigned) [Example 552] cannot be ordered by IC50: under 5 nM for the first, under 5 nM for the second.

First: CCN(c1ccc(C(CC(=O)O)C2CC2)cc1NC(=O)Nc1ccc(C#N)cc1)C1CCOCC1 (single isomer, unassigned) [Example 255 Enantiomer 1, 3-(3-(3-(4-Cyanophenyl)ureido)-4-(ethyl(tetrahydro-2H-pyran-4-yl)amino)phenyl)-3-cyclopropylpropanoic acid]
Second: C[C@@H]1CN(c2ccc(C(CC(=O)O)C3CC3)cc2Nc2ccc(C#N)cc2)C[C@H](C)O1 (single isomer, unassigned) [Example 243]
The IC50 of the first is higher: over 50 nM for the first, under 50 nM for the second.

First: COCC(CC(=O)O)c1cc(F)c(N(CC(C)C)CC(C)C)c(Nc2ccc3nc(C)sc3c2)c1 (single isomer, unassigned) [Example 925, 3-(4-(diisobutylamino)-3-fluoro-5-((2-methylbenzo [d]thiazol-6-yl)amino)phenyl)-4-methoxybutanoic acid]
Second: COCC(CC(=O)O)c1ccc(N(C)C2CCOCC2)c(Nc2ccc(Cl)cc2)c1 (single isomer, unassigned) [Example 877, 3-(3-((4-chlorophenyl)amino)-4-(methyl(tetrahydro-2H-pyran-4-yl)amino)phenyl)-4-methoxybutanoic acid]
The IC50 of the first is lower: under 50 nM for the first, over 50 nM for the second.

CCN(c1ccc(C(CC(=O)O)C2CC2)cc1Nc1ccc(OC)nc1)C1CCS(=O)(=O)CC1 (single isomer, unassigned) [Example 342, 3-cyclopropyl-3-(4-((1,1-dioxidotetrahydro-2H-thiopyran-4-yl)(ethyl)amino)-3-((6-methoxypyridin-3-yl)amino)phenyl)propanoic acid] and CCCN(c1ccc(C(COC)CC(=O)O)cc1Nc1ccc(Cl)cc1)C1CCS(=O)(=O)CC1 (single isomer, unassigned) [Example 185, 3-(3-((4-chlorophenyl)amino)-4-((1,1-dioxidotetrahydro-2H-thiopyran-4-yl)(propyl)amino)phenyl)-4-methoxybutanoic acid] cannot be ordered by IC50: under 50 nM for the first, under 5 nM for the second.

COCC(CC(=O)O)c1ccc(N(C)C2CCOCC2)c(Nc2ccc(C#N)cc2F)c1 (single isomer, unassigned) [Example 876, 3-(3-((4-cyano-2-fluorophenyl)amino)-4-(methyl(tetrahydro-2H-pyran-4-yl)amino)phenyl)-4-methoxybutanoic acid] and CCC(CC(=O)O)c1ccc(N(CC)C2CCOC2)c(NC(=O)Nc2ccc(Cl)cc2F)c1 (single isomer, unassigned) [Example 946 D2, 3-(3-(3-(4-Chloro-2-fluorophenyl)ureido)-4-(ethyl(tetrahydrofuran-3-yl)amino)phenyl)pentanoic acid] cannot be ordered by IC50: under 50 nM for the first, under 5 nM for the second.

CCOc1ncc(Nc2cc(C(CC)CC(=O)O)ccc2N(CC)C2CCCOC2)cn1 (single isomer, unassigned) [Example 63, 3-(3-((2-ethoxypyrimidin-5-yl)amino)-4-(ethyl(tetrahydro-2H-pyran-3-yl)amino)phenyl)pentanoic acid] and CCC(CC(=O)O)c1ccc(N(CC)C2CCCOC2)c(Nc2cnc(OC)nc2)c1 (single isomer, unassigned) [Example 68, 3-(4-(ethyl(tetrahydro-2H-pyran-3-yl)amino)-3-((2-methoxypyrimidin-5-yl)amino)phenyl)pentanoic acid] cannot be ordered by IC50: under 5 nM for the first, under 50 nM for the second.
